Assay results published in patent US20260354380A1, “PYRAZOLO PESTICIDAL COMPOUNDS” (BASF SE, priority 2022, published 2026).

Columns and labels:
Format in all cases: in vivo
Aedes aegypti = test: whole plant or invertebrate; settings: for mortality in comparison with untreated controls: 800 ppm, larvae, 2 days
Description: Example B1: Action on Yellow Fever Mosquito (Aedes aegypti)
For evaluating control of yellow fever mosquito (Aedes aegypti) the test unit consisted of 96-well-microtiter plates containing 200 μl of tap water per well and 5-15 freshly hatched A. aegypti larvae.
The active compounds or mixtures were formulated using a solution containing 75% (v/V) water and 25% (v/v) DMSO. Different concentrations of formulated compounds or mixtures were sprayed onto the insect diet at 2.5 μl, using a custom-built micro atomizer, at two replications. For experimental mixtures in these tests identical volumes of both mixing partners at the desired concentrations respectively, were mixed together.
After application, microtiter plates were incubated at 28±1 °C, 80±5% RH for 2 days. Larval mortality was then visually assessed.

Anthonomus grandis = test: Action on Boll Weevil (Anthonomus grandis); settings: 800 ppm, egg and larval mortality, 5 days
Description: Example B3: Action on Boll Weevil (Anthonomus grandis)
For evaluating control of boll weevil (Anthonomus grandis) the test unit consisted of 96-well-microtiter plates containing an insect diet and 5-10 A. grandis eggs.
The compounds were formulated using a solution containing 75% (v/v) water and 25% (v/v) DMSO. Different concentrations of formulated compounds were sprayed onto the insect diet at 5 μl, using a custom-built micro atomizer, at two replications.
After application, microtiter plates were incubated at about 25±1 °C and about 75±5% relative humidity for 5 days. Egg and larval mortality were then visually assessed.

Heliothis virescens = test: Action on Tobacco Budworm (Heliothis virescens); settings: 800 ppm, egg and larval mortality, 5 days
Description: Example B5: Action on Tobacco Budworm (Heliothis virescens)
For evaluating control of tobacco budworm (Heliothis virescens) the test unit consisted of 96-well-microtiter plates containing an insect diet and 15-25 H. virescens eggs.
The compounds were formulated using a solution containing 75% v/v water and 25% v/v DMSO. Different concentrations of formulated compounds were sprayed onto the insect diet at 10 μl, using a custom-built micro atomizer, at two replications.
After application, microtiter plates were incubated at about 28±1 °C and about 80±5% relative humidity for 5 days. Egg and larval mortality were then visually assessed.

Plutella xylostella = test: Action on Diamond Back Moth (Plutella xylostella), cabbage leaf dip, 3rd instar larvae; settings: 300 ppm, 3rd instar larvae, 72 hours after treatment
Description: Example B6: Action on Diamond Back Moth (Plutella xylostella)
The active compound is dissolved at the desired concentration in a mixture of 1:1 (v/v) distilled water:acetone. Surfactant (Kinetic® HV) is added at a rate of 0.01% (v/v). The test solution is prepared at the day of use.
Leaves of cabbage were dipped in test solution and air-dried. Treated leaves were placed in petri dishes lined with moist filter paper and inoculated with ten 3rd instar larvae. Mortality was recorded 72 hours after treatment. Feeding damages were also recorded using a scale of 0-100%.
(§1) Compounds disclosed in the document WO2021013561 were prepared according to procedures described therein and their pesticidal activities were determined by procedure analogues to the procedures as described above in examples B6 and B7.

Spodoptera eridania = test: Action on Southern Armyworm (Spodoptera eridania), 2nd Instar Larvae; settings: 300 ppm, 2nd instar larvae, 4 days after treatment
Description: Example B7: Action on Southern Armyworm (Spodoptera eridania), 2nd Instar Larvae
The active compounds were formulated by a Tecan liquid handler in 100% cyclohexanone as a 10,000 ppm solution supplied in tubes. The 10,000 ppm solution was serially diluted in 100% cyclohexanone to make interim solutions. These served as stock solutions for which final dilutions were made by the Tecan in 50% acetone: 50% water (v/v) into 10 or 20 ml glass vials. A nonionic surfactant (Kinetic®) was included in the solution at a volume of 0.01% (v/v). The vials were then inserted into an automated electrostatic sprayer equipped with an atomizing nozzle for application to plants/insects.
Lima bean plants (variety Sieva) were grown 2 plants to a pot and selected for treatment at the 1st true leaf stage. Test solutions were sprayed onto the foliage by an automated electrostatic plant sprayer equipped with an atomizing spray nozzle. The plants were dried in the sprayer fume hood and then removed from the sprayer. Each pot was placed into perforated plastic bags with a zip closure. About 10 to 11 armyworm larvae were placed into the bag and the bags zipped closed. Test plants were maintained in a growth room at about 25 °C and about 20-40% relative humidity for 4 days, avoiding direct exposure to fluorescent light (24 hour photoperiod) to prevent trapping of heat inside the bags. Mortality and reduced feeding were assessed 4 days after treatment, compared to untreated control plants.
as §1

| Compound | mortality in comparison with untreated controls (Aedes aegypti) | mortality in comparison with untreated controls (Anthonomus grandis) | mortality in comparison with untreated controls (Heliothis virescens) | mortality in comparison with untreated controls (Plutella xylostella) | mortality in comparison with untreated controls (Spodoptera eridania) | mortality at 800 ppm (Aedes aegypti; Aedes aegypti, 48 h, read-out: mortality in comparison with untreated controls) [%] | mortality at 800 ppm (Anthonomus grandis; Anthonomus grandis, 120 h, read-out: mortality in comparison with untreated controls) [%] | mortality at 800 ppm (Heliothis virescens; Heliothis virescens, 120 h, read-out: mortality in comparison with untreated controls) [%] | mortality at 300 ppm (Plutella xylostella; Plutella xylostella, foliar, read-out: mortality in comparison with untreated controls) [%] | mortality at 300 ppm (Spodoptera eridania; Spodoptera eridania, 96 h, read-out: mortality in comparison with untreated controls) [%] |
| --- | --- | --- | --- | --- | --- | --- | --- | --- | --- | --- |
| Cc1ccc(C(C)C)c(N2C(=O)CSC2=NC(=O)Nc2ccc(-n3cc(NC(=O)c4ccc(C5CC5(F)F)cc4)c(C)n3)cc2)c1 (racemic) [Example C-65] | at least 50% | at least 75% | at least 75% | at least 75% | at least 75% | – | – | – | – | – |
| Cc1ccc(C(C)C)c(N2C(=O)CS/C2=N\C(=O)Nc2ccc(-n3nc(C)c(NC(=O)c4ccc(OC(F)(F)F)cc4)c3C3CC3)cc2)c1 [Example C-5, N-[5-cyclopropyl-1-[4-[[(Z)-[3-(2-isopropyl-5-methyl-phenyl)-4-oxo-thiazolidin-2-ylidene]carbamoyl]amino]phenyl]-3-methyl-pyrazol-4-yl]-4-(trifluoromethoxy)benzamide] | – | – | – | – | – | ≥ 50 | ≥ 75 | ≥ 75 | ≥ 75 | ≥ 75 |
| Cc1nn(-c2ccc(NC(=O)N=C3SCC(=O)N3c3ccccc3C(C)C)cc2)cc1NC(=O)c1ccc(OC(F)(F)F)cc1 [Example C-8] | at least 50% | at least 75% | at least 75% | at least 75% | at least 75% | – | – | – | – | – |
| Cc1ccc(C(F)(F)F)c(N2C(=O)CSC2=NC(=O)Nc2ccc(-n3cc(NC(=O)c4ccc(OC(F)(F)F)cc4)c(C)n3)cc2)c1 [Example C-12] | at least 50% | at least 75% | at least 75% | at least 75% | at least 75% | – | – | – | – | – |
| Cc1ccc(C(C)C)c(N2C(=O)CS/C2=N\C(=O)Nc2ccc(-n3cc(NC(=O)c4ccc(OC(F)(F)F)cc4)c(C)n3)cc2C#N)c1 [Example C-13] | at least 50% | at least 75% | at least 75% | at least 75% | at least 75% | – | – | – | – | – |
| COc1cc(-n2cc(NC(=O)c3ccc(OC(F)(F)F)cc3)c(C)n2)ccc1NC(=O)/N=C1\SCC(=O)N1c1cc(C)ccc1C(C)C [Example C-14] | at least 50% | at least 75% | at least 75% | at least 75% | at least 75% | – | – | – | – | – |
| Cc1ccc(C(C)C)c(N2C(=O)CS/C2=N\C(=O)Nc2ccc(-n3nc(C)c(NC(=O)c4ccc(OC(F)(F)F)cc4)c3C)cc2)c1 [Example C-15] | at least 50% | at least 75% | at least 75% | at least 75% | at least 75% | – | – | – | – | – |
| Cc1ccc(C(F)(F)F)c(N2C(=O)CS/C2=N\C(=O)Nc2ccc(-n3nc(C)c(NC(=O)c4ccc(OC(F)(F)F)cc4)c3C)cc2)c1 [Example C-16] | at least 50% | at least 75% | at least 75% | at least 75% | at least 75% | – | – | – | – | – |
| Cc1ccc(C(C)C)c(N2C(=O)CS/C2=N\C(=O)Nc2ccc(-n3nc(C)c(NC(=O)c4ccc(OC(F)(F)F)c(F)c4)c3C)c(F)c2)c1 [Example C-21] | at least 50% | at least 75% | at least 75% | at least 75% | at least 75% | – | – | – | – | – |
| Cc1ccc(C(C)C)c(N2C(=O)CS/C2=N\C(=O)Nc2ccc(-n3cc(NC(=O)c4ccc(Cl)c(Cl)c4)c(C)n3)cc2)c1 [Example C-26] | at least 50% | at least 75% | at least 75% | at least 75% | at least 75% | – | – | – | – | – |
| Cc1ccc(C(C)C)c(N2C(=O)CS/C2=N\C(=O)Nc2ccc(-n3cc(NC(=O)c4ccc(F)c(Cl)c4)c(C)n3)cc2)c1 [Example C-28] | at least 50% | at least 75% | at least 75% | at least 75% | at least 75% | – | – | – | – | – |
| Cc1ccc(C(C)C)c(N2C(=O)CS/C2=N\C(=O)Nc2ccc(-n3cc(NC(=O)c4ccc(Br)cc4)c(C)n3)cc2)c1 [Example C-30] | at least 50% | at least 75% | at least 75% | at least 75% | at least 75% | – | – | – | – | – |
| Cc1ccc(C(C)C)c(N2C(=O)CS/C2=N\C(=O)Nc2ccc(-n3cc(NC(=O)c4ccc(CBr)cc4)c(C)n3)cc2)c1 [Example C-31] | at least 50% | at least 75% | at least 75% | at least 75% | at least 75% | – | – | – | – | – |
| COc1ccc(C(=O)Nc2cn(-c3ccc(NC(=O)/N=C4\SCC(=O)N4c4cc(C)ccc4C(C)C)cc3)nc2C)cc1 [Example C-32] | at least 50% | at least 75% | at least 75% | at least 75% | at least 75% | – | – | – | – | – |
| C#Cc1ccc(C(=O)Nc2cn(-c3ccc(NC(=O)/N=C4\SCC(=O)N4c4cc(C)ccc4C(C)C)cc3)nc2C)cc1 [Example C-34] | at least 50% | at least 75% | at least 75% | at least 75% | at least 75% | – | – | – | – | – |
| Cc1ccc(C(C)C)c(N2C(=O)CS/C2=N\C(=O)Nc2ccc(-n3cc(NC(=O)c4ccc(C#N)cc4Cl)c(C)n3)cc2)c1 [Example C-35] | at least 50% | at least 75% | at least 75% | at least 75% | at least 75% | – | – | – | – | – |
